The values below come from patent publication US20220096664A1, “STABILIZED FORMULATIONS CONTAINING IODINATED CONTRAST AGENTS AND CYCLODEXTRINS” (Verrow Pharmaceuticals, Inc., priority 2012, published 2022).

The nature of series [1]: Photostability: iodide formed after visible light irradiation. Type of series: physicochemical. The note with it: for Iodide formed: 50 mM agent, 10 mM TRIS, pH 7.4, VIS 72 h. The method, then: Aqueous solutions comprising iodinated contrast agents were prepared and evaluated in a photolysis chamber as described in the ICH guidance document, Q1B Photostability Testing of New Drug Substances and Products, available from the US Food and Drug Administration, incorporated herein by reference. The solutions were placed in 1 cm×1 cm (3 mL) quartz cuvettes having 2 clear sides and 2 sides etched. Lids were placed on the cuvettes and sealed with a wrap of Parafilm® around the joint. The cuvettes were placed in a photolysis chamber, upright on a flat surface beneath and centered between two horizontal 24 inch fluorescent lamps, (GE, black light F20T12, 20 watt for ultraviolet, or Philips F20T12/CW, 20 watt for visible) placed 6 cm apart. The cuvettes were positioned such that their two clear sides were facing the two lamps.
Cuvettes were spaced ˜2 cm from each other, and no closer than 15 cm from the ends of the lamps. This positioning allowed reproducible light exposure to all cuvettes.
(§1) The lamps were switched on and the solutions irradiated for 18 to 24 hours for the ultraviolet (UV) lamps or 72 to 90 hours for the visible (VIS) light lamps. At the end of the selected irradiation time, the cuvettes were removed from the photolysis chamber and mixed by inversion 2-times. The caps were then removed and 40 microliter aliquots taken and diluted with 1 mL of an aqueous solution containing ˜0.9 mg/mL sodium thiosulfate. The thiosulfate solution converted any I2, IO3^−, and I3^− present in the solution tor such that total iodine species could be determined in one assay.
(§2) The diluted solutions were assayed by high pressure liquid chromatography (HPLC) using a 4.6×250 mm, C-18, 5 micron particle size, reversed phase column with detection at 280 nm for the contrast agent and 230 nm for the thiosulfate and the iodide ion (r). A mobile phase of 30:70 methanol:aqueous buffer (50 mM KH2PO4+7 mL/L 40% tetrabutyl ammonium hydroxide) at 0.75 mL/min was used for elution. Injection volume was 20 microliters. External standards were prepared containing each contrast agent, potassium iodide, and sodium thiosulfate solution and analyzed along with the irradiated samples. The results were reported as weight percentage iodide formed (mg iodide/mg contrast agent times 100).
The absorbance readings at 400 nm due to light exposure were plotted against time of exposure and the resulting correlation used to determine the UV and VIS light exposure. A change in absorbance reading of 0.45 was assumed equivalent to 200 watt hours/square meter for the UV light and a change of 0.51 was assumed equivalent to 1.2 million lux hours for the VIS light. The UV lamps provided 6.62 watts/square meter and the VIS lamps provided 7180 lux.
Aqueous solutions were prepared containing 473 mM iohexol (180 mg 1/mL), 10 mM tromethamine HCl buffer (TRIS), with and without various SCDs. The pH of the solutions was adjusted to 7.4 with 0.1N hydrochloric acid. Aliquots of the solutions were irradiated with ultraviolet (UV) light for 18 hours (119 watt hours/m^2) and other aliquots irradiated with visible (VIS) light for 90 hours (0.65 million lux hours). The solutions were then processed, analyzed and reported as in Example 2, with the exception that the iohexol peak was measured at 300 nm for both samples and standards. Results of the study are presented in the table below along with the SCD used. The SCDs included derivatives prepared from alpha, beta, and gamma CD to evaluate the effect of CD cavity size. Various substituents, including one derivative containing more than one type of substituent, and degrees of substitution (DS) were also evaluated.
Aqueous solutions were prepared containing 50 mM iodinated contrast agent, 10 mM tromethamine HCl buffer (TRIS), with and without sulfobutylether beta-cyclodextrin with an average degree of substitution-7 (SBE7-β-CD), or 2-hydroxypropyl beta-cyclodextrin with an average degree of substitution of ˜6.3 (HP6.3-β-CD) or ˜4.3 (HP4.3-β-CD). […]

The format of series [2] is physicochemical. The following applies: for Iodide formed: 50 mM agent, 10 mM TRIS, pH 7.4, autoclaved then UV 18 h; for percent change in iodide degradants, UV: 24 h; for percent change in iodide degradants, UV / percent change in iodide degradants, VIS: pH 7.1; for percent change in iodide degradants, VIS: 72 h. The method, then: as §1, §2
Aqueous solutions were prepared containing 50 mM iodinated contrast agent, 10 mM tromethamine HCl buffer (TRIS), with and without sulfobutylether beta-cyclodextrin with an average degree of substitution-7 (SBE7-β-CD), or 2-hydroxypropyl beta-cyclodextrin with an average degree of substitution of ˜6.3 (HP6.3-β-CD) or ˜4.3 (HP4.3-β-CD). The iohexol solution was prepared by dissolving solid iohexol powder while the other solutions were prepared by diluting commercial formulated products and adding sufficient TRIS buffer to reach 10 mM. The pH of the solutions was adjusted to 7.4 with 0.1N hydrochloric acid.
Aliquots of the solutions were irradiated with visible light for 72 hours (0.52 million lux hours). Other aliquots were autoclaved for 20 minutes at 121° C., cooled to room temperature and then irradiated with ultraviolet light for 18 hours (119 watt hours/m2). The solutions were then processed, analyzed and reported as in Example 2, except that the chromatographic peaks of the contrast agents were evaluated at 300 nm for both samples and standards.
Aqueous solutions were prepared containing 50 mM iohexol, 0, 2.5, 5, 7.5, or 10 mM tromethamine HCl (TRIS) buffer, with and without 2.5 mM sulfobutylether beta-cyclodextrin with an average degree of substitution-7 (SBE7-β-CD). The pH of the solutions was adjusted to 7.4 with 0.1N hydrochloric acid and the solutions were transferred to glass vials. The vials were stoppered, crimp-capped and autoclaved for 20 minutes at 121° C. The pH of the autoclaved solutions was measured after the solutions were at room temperature.
Aliquots of the autoclaved solutions were irradiated with visible light for 72 hours (0.52 million lux hours) and other aliquots irradiated with ultraviolet light for 18 hours (119 watt hours/m2). The solutions were then processed, analyzed and reported as in Example 2, except that the chromatographic peak of the iohexol was evaluated at 300 nm for both samples and standards.
Aqueous formulations were prepared containing iodinated contrast agents at concentrations used commercially in medical procedures. Sulfobutylether-cyclodextrin, sodium salt, average degree of substitution ˜7 (SBE7CD) was added at varying agent:CD mole ratios. The formulations were placed in glass vials, sealed with rubber stoppers and aluminum crimps, and autoclaved at 121° C. for 20 minutes. […]

The structures appear in SMILES notation. Where two headings read alike, the source gives them in different places.

In the case of `CC(=O)N(CC(O)CN(C(C)=O)c1c(I)c(C(=O)NCC(O)CO)c(I)c(C(=O)NCC(O)CO)c1I)c1c(I)c(C(=O)NCC(O)CO)c(I)c(C(=O)NCC(O)CO)c1I` (stereo not drawn) [Iodixanol, iodixanol], the Iodide formed was 0.142 wt % in series [1] (agent:SBE7-β-CD 1:0.1), 0.153 wt % in series [1] (no SCD (1:0)), 0.220 wt % in series [2] (agent:SBE7-β-CD 1:0.1) and 0.292 wt % in series [2] (no SCD (1:0)). For the same molecule, the “Iodide Formed, UV” value in series [2] (Iodixanol 270 mg I/mL, pH 7.4, agent:SBE7CD 1:0.05, autoclaved then UV 24 h) is listed as 0.0791 wt %; in series [2] (Iodixanol 270 mg I/mL, pH 7.4, no SCD (1:0), autoclaved then UV 24 h) it was 0.0845 wt %; in series [2] (Iodixanol 320 mg I/mL, pH 7.4, agent:SBE7CD 1:0.05, autoclaved then UV 24 h), 0.0743 wt %; in series [2] (Iodixanol 320 mg I/mL, pH 7.4, no SCD (1:0), autoclaved then UV 24 h) it was 0.0751 wt %. Also, the “Iodide Formed, VIS” value in series [2] (Iodixanol 270 mg I/mL, pH 7.4, agent:SBE7CD 1:0.05, autoclaved then VIS 72 h) turned out to be 0.0288 wt %; in series [2] (Iodixanol 270 mg I/mL, pH 7.4, no SCD (1:0), autoclaved then VIS 72 h), 0.0325 wt %; in series [2] (Iodixanol 320 mg I/mL, pH 7.4, agent:SBE7CD 1:0.05, autoclaved then VIS 72 h), 0.0251 wt %; in series [2] (Iodixanol 320 mg I/mL, pH 7.4, no SCD (1:0), autoclaved then VIS 72 h) it was 0.0265 wt %.
As for `O=C(NCC(O)CO)c1c(I)c(C(=O)NCC(O)CO)c(I)c(N(CCO)C(=O)CO)c1I` (stereo not drawn) [Ioversol, ioversol], the Iodide formed in series [1] (agent:SBE7-β-CD 1:0.1) is recorded as 0.301 wt %; in series [1] (no SCD (1:0)), 0.304 wt %; in series [2] (agent:SBE7-β-CD 1:0.1) it was 0.545 wt %; in series [2] (no SCD (1:0)), 0.665 wt %. In addition, the “percent change in iodide degradants formed in the presence of the SCD” value in series [1] (72 h, 50 mM, pH 7.4) is given as “(−1%)”; in series [2] (18 h, 50 mM, pH 7.4) it was “(−18%)”. The “percent change in iodide degradants, UV” value in series [2] (160 mg I/mL) was “(−24.0%)”; in series [2] (240 mg I/mL), “(−19.2%)”; in series [2] (300 mg I/mL) it was “(−17.2%)”; in series [2] (320 mg I/mL) it was “(−36.7%)”; in series [2] (350 mg I/mL), “(−26.8%)”. Besides, the “percent change in iodide degradants, VIS” value in series [2] (160 mg I/mL) is “(−9.9%)”; in series [2] (240 mg I/mL) it was “(−11.9%)”; in series [2] (300 mg I/mL), “(−17.4%)”; in series [2] (320 mg I/mL) it was “(−14.2%)”; in series [2] (350 mg I/mL), “(−11.7%)”. The “Iodide Formed, UV” value in series [2] (Ioversol 160 mg I/mL, pH 7.1, agent:SBE7CD 1:0.05, autoclaved then UV 24 h) stood at 0.171 wt %; in series [2] (Ioversol 160 mg I/mL, pH 7.1, no SCD (1:0), autoclaved then UV 24 h), 0.225 wt %; in series [2] (Ioversol 240 mg I/mL, pH 7.1, agent:SBE7CD 1:0.05, autoclaved then UV 24 h), 0.126 wt %; in series [2] (Ioversol 240 mg I/mL, pH 7.1, no SCD (1:0), autoclaved then UV 24 h) it was 0.156 wt %; in series [2] (Ioversol 300 mg I/mL, pH 7.1, agent:SBE7CD 1:0.05, autoclaved then UV 24 h) it was 0.111 wt %; in series [2] (Ioversol 300 mg I/mL, pH 7.1, no SCD (1:0), autoclaved then UV 24 h), 0.134 wt %. Moreover, the “Iodide Formed, UV” value in series [2] (Ioversol 320 mg I/mL, pH 7.1, agent:SBE7CD 1:0.05, autoclaved then UV 24 h) is on record as 0.0778 wt %; in series [2] (Ioversol 320 mg I/mL, pH 7.1, no SCD (1:0), autoclaved then UV 24 h), 0.123 wt %; in series [2] (Ioversol 350 mg I/mL, pH 7.1, agent:SBE7CD 1:0.05, autoclaved then UV 24 h), 0.0864 wt %; in series [2] (Ioversol 350 mg I/mL, pH 7.1, no SCD (1:0), autoclaved then UV 24 h), 0.118 wt %. For the same molecule, the “Iodide Formed, VIS” value in series [2] (Ioversol 160 mg I/mL, pH 7.1, agent:SBE7CD 1:0.05, autoclaved then VIS 72 h) came to 0.0646 wt %; in series [2] (Ioversol 160 mg I/mL, pH 7.1, no SCD (1:0), autoclaved then VIS 72 h), 0.0717 wt %; in series [2] (Ioversol 240 mg I/mL, pH 7.1, agent:SBE7CD 1:0.05, autoclaved then VIS 72 h) it was 0.0400 wt %; in series [2] (Ioversol 240 mg I/mL, pH 7.1, no SCD (1:0), autoclaved then VIS 72 h), 0.0454 wt %; in series [2] (Ioversol 300 mg I/mL, pH 7.1, agent:SBE7CD 1:0.05, autoclaved then VIS 72 h) it was 0.0298 wt %; in series [2] (Ioversol 300 mg I/mL, pH 7.1, no SCD (1:0), autoclaved then VIS 72 h), 0.0361 wt %. Further, the “Iodide Formed, VIS” value in series [2] (Ioversol 320 mg I/mL, pH 7.1, agent:SBE7CD 1:0.05, autoclaved then VIS 72 h) was 0.0277 wt %; in series [2] (Ioversol 320 mg I/mL, pH 7.1, no SCD (1:0), autoclaved then VIS 72 h), 0.0323 wt %; in series [2] (Ioversol 350 mg I/mL, pH 7.1, agent:SBE7CD 1:0.05, autoclaved then VIS 72 h), 0.0250 wt %; in series [2] (Ioversol 350 mg I/mL, pH 7.1, no SCD (1:0), autoclaved then VIS 72 h), 0.0283 wt %.
